The record followed here is ChEMBL document CHEMBL3860102, “Structure-Cytotoxicity Relationships of Analogues of N14-Desacetoxytubulysin H” (J Med Chem, 2016).

A value given as a limit tells only on which side of the number the result lay.

Usually GI50 stands for the concentration that inhibits growth by half. A lower GI50 goes with greater sensitivity of the cells. A word on the IC50: it is the midpoint of a concentration-inhibition curve.

Experiment [1] is described as follows: Cytotoxicity against human HCT116 cells incubated for 72 hrs by alamar blue abased assay. In kind it is functional. The settings on record: HCT-116, 72 h. (The colour change of resazurin is a common sign of viable cells or microbes.)
Experiment [2] in a line: Cytotoxicity against human MDA-MB-231 cells incubated for 72 hrs by alamar blue abased assay. The format is functional. The settings on record: MDA-MB-231, 72 h.
The nature of experiment [3]: Cytotoxicity against human DU145 cells incubated for 72 hrs by alamar blue abased assay. The format is functional. As to conditions: DU-145, 72 h.
A short description of experiment [4]: Cytotoxicity against human KB-3-1 cells. The format is functional, cell-based.
Experiment [5] can be described thus: Cytotoxicity against mouse L929 cells. The format is functional, cell-based.
Experiment [6] can be described thus: Cytotoxicity against human SW480 cells. The format is functional, cell-based.
The nature of experiment [7]: Cytotoxicity against human T98 cells. In kind it is functional, cell-based.

`CC[C@H](C)[C@H](NC(=O)[C@H]1CCCN1C)C(=O)N(C)[C@H](C[C@@H](OC(C)=O)c1nc(C(=O)N[C@@H](Cc2ccccc2)C[C@H](C)C(=O)O)cs1)C(C)C`: the concentration for 50% growth inhibition (GI50) turned out to be 0.6 nM in experiment [1], 3.3 nM in experiment [2] and 1 nM in experiment [3].

With `CCCN(C)[C@@H](C(=O)N[C@H](C(=O)N(C)[C@H](C[C@@H](OC(C)=O)c1nc(C(=O)N[C@@H](Cc2ccccc2)C[C@H](C)C(=O)O)cs1)C(C)C)[C@@H](C)CC)C(C)C`, the GI50 in experiment [1], in experiment [2] and in experiment [3] was greater than 3330 nM each time.

For the molecule `CC[C@H](C)[C@H](NC(=O)[C@H]1CSCCN1C)C(=O)N(C)[C@H](C[C@@H](OC(C)=O)c1nc(C(=O)N[C@@H](Cc2ccccc2)C[C@H](C)C(=O)O)cs1)C(C)C`, the GI50 turned out to be 69.3 nM in experiment [1], 226 nM in experiment [2] and 166 nM in experiment [3].

As for `CC[C@H](C)[C@H](NC(=O)[C@H]1CCCCN1C)C(=O)N(C)[C@H](C[C@@H](OC(C)=O)c1nc(C(=O)N[C@H](CN)Cc2ccccc2)cs1)C(C)C`, the GI50 came to 5.9 nM in experiment [1], 9 nM in experiment [2] and 2.7 nM in experiment [3].

For the molecule `CC[C@H](C)[C@H](NC(=O)[C@H]1COCCN1)C(=O)N(C)[C@H](C[C@@H](OC(C)=O)c1nc(C(=O)N[C@@H](Cc2ccccc2)C[C@H](C)C(=O)O)cs1)C(C)C`, the GI50 in experiment [1] was 1380 nM; in experiment [2], greater than 3330 nM; in experiment [3] it was 2280 nM.

Regarding `CC[C@H](C)[C@H](NC(=O)[C@H]1CCCCN1C)C(=O)N(C)[C@H](C[C@@H](OC(C)=O)c1nc(C(=O)N[C@@H](Cc2ccccc2)C[C@H](C)C(=O)NN)cs1)C(C)C`, the values for the 50% growth inhibitory concentration (GI50) in experiment [1], in experiment [2] and in experiment [3] were 6.09 nM, 5.24 nM and 6.63 nM, respectively.

Turning to `CC[C@H](C)[C@H](NC(=O)[C@H]1CCc2ccccc2N1C)C(=O)N(C)[C@H](C[C@@H](OC(C)=O)c1nc(C(=O)N[C@@H](Cc2ccccc2)C[C@H](C)C(=O)O)cs1)C(C)C`, the 50% growth inhibitory concentration (GI50) in experiment [1], in experiment [2] and in experiment [3] was greater than 3330 nM throughout.

With `CC[C@H](C)[C@H](NC(=O)[C@H]1C[C@@H](C)CN1C)C(=O)N(C)[C@H](C[C@@H](OC(C)=O)c1nc(C(=O)N[C@@H](Cc2ccccc2)C[C@H](C)C(=O)O)cs1)C(C)C`, the GI50 in experiment [1] was determined as 0.8 nM; in experiment [2] it was 4.2 nM; in experiment [3], 1.7 nM.

As to `CC[C@H](C)[C@H](NC(=O)[C@H]1CSCN1C)C(=O)N(C)[C@H](C[C@@H](OC(C)=O)c1nc(C(=O)N[C@@H](Cc2ccccc2)C[C@H](C)C(=O)O)cs1)C(C)C`, the GI50 stood at 352 nM in experiment [1], 816 nM in experiment [2] and 1120 nM in experiment [3].

On to `CC[C@H](C)[C@H](NC(=O)[C@@H](Cc1ccccc1)N(C)C)C(=O)N(C)[C@H](C[C@@H](OC(C)=O)c1nc(C(=O)N[C@@H](Cc2ccccc2)C[C@H](C)C(=O)O)cs1)C(C)C`, for which the GI50 in experiment [1] was determined as 103 nM; in experiment [2], 225 nM; in experiment [3], 134 nM.

Consider `CC[C@H](C)[C@H](NC(=O)[C@H]1CC(C)(C)CCN1C)C(=O)N(C)[C@H](C[C@@H](OC(C)=O)c1nc(C(=O)N[C@@H](Cc2ccccc2)C[C@H](C)C(=O)O)cs1)C(C)C`, for which the GI50 in experiment [1] was found to be 1.8 nM; in experiment [2] it was 3.9 nM; in experiment [3], 1.3 nM.

In the case of `CC[C@H](C)[C@H](NC(=O)[C@@H]1CC(C)(C)CCN1C)C(=O)N(C)[C@H](C[C@@H](OC(C)=O)c1nc(C(=O)N[C@@H](Cc2ccccc2)C[C@H](C)C(=O)O)cs1)C(C)C`, the concentration for 50% growth inhibition (GI50) was determined as 88 nM in experiment [1], 118 nM in experiment [2] and 50.6 nM in experiment [3].

In the case of `CC[C@H](C)[C@H](NC(=O)[C@H]1CCCCN1C)C(=O)N(C)[C@H](C[C@@H](OC(C)=O)c1nc(C(=O)N[C@@H](Cc2ccccc2)C[C@H](C)C(N)=O)cs1)C(C)C`, the 50% growth inhibitory concentration (GI50) in experiment [1] came out at 0.737 nM; in experiment [2], 1.06 nM; in experiment [3], 0.948 nM.

Regarding `CC[C@H](C)[C@H](NC(=O)[C@@H](CC(C)C)N(C)C)C(=O)N(C)[C@H](C[C@@H](OC(C)=O)c1nc(C(=O)N[C@@H](Cc2ccccc2)C[C@H](C)C(=O)O)cs1)C(C)C`, the 50% growth inhibitory concentration (GI50) in experiment [1] is 8.2 nM; in experiment [2] it was 19.1 nM; in experiment [3], 17 nM.

For the molecule `CC[C@H](C)[C@H](NC(=O)[C@@H](C)N(C)C)C(=O)N(C)[C@H](C[C@@H](OC(C)=O)c1nc(C(=O)N[C@@H](Cc2ccccc2)C[C@H](C)C(=O)O)cs1)C(C)C`, the concentration for 50% growth inhibition (GI50) in experiment [1] amounted to 2.5 nM; in experiment [2] it was 3.9 nM; in experiment [3] it was 4.5 nM.

Regarding `CC[C@H](C)[C@H](NC(=O)C1(C)CCCCN1C)C(=O)N(C)[C@H](C[C@@H](OC(C)=O)c1nc(C(=O)N[C@@H](Cc2ccccc2)C[C@H](C)C(=O)O)cs1)C(C)C` (some centres undefined), the GI50 in experiment [3] turned out to be 1.2 nM. That is a single-digit nanomolar value.

On to `CC[C@H](C)[C@H](NC(=O)[C@H]1CCSCN1C)C(=O)N(C)[C@H](C[C@@H](OC(C)=O)c1nc(C(=O)N[C@@H](Cc2ccccc2)C[C@H](C)C(=O)O)cs1)C(C)C`, for which the concentration for 50% growth inhibition (GI50) in experiment [1] came to 64.2 nM; in experiment [2], 125 nM; in experiment [3], 136 nM.

Take `CC[C@H](C)[C@H](NC(=O)[C@@H](C(C)C)N(C)CC)C(=O)N(C)[C@H](C[C@@H](OC(C)=O)c1nc(C(=O)N[C@@H](Cc2ccccc2)C[C@H](C)C(=O)O)cs1)C(C)C`: the GI50 in experiment [1] was 1640 nM; in experiment [2], 3020 nM; in experiment [3] it was 2940 nM.

On to `CC[C@H](C)[C@H](NC(=O)[C@@H](C(C)C)N(C)C)C(=O)N(C)[C@H](C[C@@H](OC(C)=O)c1nc(C(=O)N[C@@H](Cc2ccccc2)C[C@H](C)C(=O)O)cs1)C(C)C`, for which the 50% growth inhibitory concentration (GI50) in experiment [1] stood at 4.4 nM; in experiment [2] it was 10.7 nM; in experiment [3], 9.6 nM.

On to `CC[C@H](C)[C@H](NC(=O)[C@H]1CCCCN1CCN)C(=O)N(C)[C@H](C[C@@H](OC(C)=O)c1nc(C(=O)N[C@@H](Cc2ccccc2)C[C@H](C)C(=O)O)cs1)C(C)C`, for which the GI50 in experiment [1] is 174 nM; in experiment [2], 243 nM; in experiment [3] it was 176 nM.

As to `CC[C@H](C)[C@H](NC(=O)[C@H]1CCCCN1C(C)=O)C(=O)N(C)[C@H](C[C@@H](OC(C)=O)c1nc(C(=O)N[C@@H](Cc2ccccc2)C[C@H](C)C(=O)O)cs1)C(C)C`, the results for the GI50 in experiment [1], in experiment [2] and in experiment [3] were 798 nM, greater than 3330 nM and greater than 3330 nM, respectively.

With `CC[C@H](C)[C@H](NC(=O)[C@H]1CCCCN1C)C(=O)N(C)[C@H](C[C@@H](O)c1nc(C(=O)N[C@@H](Cc2ccccc2)C[C@H](C)C(=O)O)cs1)C(C)C`, the results for the 50% growth inhibitory concentration (GI50) in experiment [1], in experiment [2] and in experiment [3] were 110 nM, 169 nM and 363 nM, respectively.

Regarding `CC[C@H](C)[C@H](NC(=O)[C@H]1C[C@H](C)CCN1C)C(=O)N(C)[C@H](C[C@@H](OC(C)=O)c1nc(C(=O)N[C@@H](Cc2ccccc2)C[C@H](C)C(=O)O)cs1)C(C)C`, the 50% growth inhibitory concentration (GI50) is 0.5 nM in experiment [1], 3.4 nM in experiment [2] and 0.9 nM in experiment [3].

Turning to `CC[C@H](C)[C@H](NC(=O)[C@H]1COCCN1C)C(=O)N(C)[C@H](C[C@@H](OC(C)=O)c1nc(C(=O)N[C@@H](Cc2ccccc2)C[C@H](C)C(=O)O)cs1)C(C)C`, the 50% growth inhibitory concentration (GI50) in experiment [1] is 408 nM; in experiment [2] it was 998 nM; in experiment [3] it was 808 nM.

For `CC[C@H](C)[C@H](NC(=O)[C@H]1CCCCN1)C(=O)N(C)[C@H](C[C@@H](OC(C)=O)c1nc(C(=O)N[C@@H](Cc2ccccc2)C[C@H](C)C(=O)OC)cs1)C(C)C`, the figures for the concentration for 50% growth inhibition (GI50) in experiment [1], in experiment [2] and in experiment [3] were 3.68 nM, 9.39 nM and 11.5 nM, respectively.

Take `CC[C@H](C)[C@H](NC(=O)[C@H]1CCCCN1)C(=O)N(C)[C@H](C[C@@H](OC(C)=O)c1nc(C(=O)N[C@@H](Cc2ccccc2)C[C@H](C)C(=O)O)cs1)C(C)C`: the values for the GI50 in experiment [1], in experiment [2] and in experiment [3] were 21.3 nM, 19.6 nM and 46.2 nM, respectively.

On to `CC[C@H](C)[C@H](NC(=O)[C@@H](c1ccccc1)N(C)C)C(=O)N(C)[C@H](C[C@@H](OC(C)=O)c1nc(C(=O)N[C@@H](Cc2ccccc2)C[C@H](C)C(=O)O)cs1)C(C)C`, for which the GI50 was determined as 52.5 nM in experiment [1], 111 nM in experiment [2] and 82.3 nM in experiment [3].

For `CC[C@H](C)[C@H](NC(=O)[C@H]1CC2CCN1CC2)C(=O)N(C)[C@H](C[C@@H](OC(C)=O)c1nc(C(=O)N[C@@H](Cc2ccccc2)C[C@H](C)C(=O)O)cs1)C(C)C`, the GI50 in experiment [1] stood at 214 nM; in experiment [2] it was 196 nM; in experiment [3], 428 nM.

Consider `CC[C@H](C)[C@H](NC(=O)[C@H]1CCCCN1C)C(=O)N(C)[C@H](C[C@@H](OC(C)=O)c1nc(C(=O)N[C@@H](Cc2ccccc2)C[C@H](C)C(=O)O)cs1)C(C)C`, for which the figures for the concentration for 50% growth inhibition (GI50) in experiment [1], in experiment [2] and in experiment [3] were 0.62 nM, 1.14 nM and 0.71 nM, respectively. The concentration for half-maximal inhibition (IC50) in experiment [4] was 0.19 nM; in experiment [5], 0.34 nM; in experiment [6] it was 0.02 nM; in experiment [7] it was 1.6 nM.
